These results are taken from ChEMBL document CHEMBL3784945, “Isoindolinone compounds active as Kv1.5 blockers identified using a multicomponent reaction approach” (Bioorg Med Chem Lett, 2016).

Converted amounts (≈) assume the structure as drawn.

One may read the IC50 as the point on the concentration scale where inhibition reaches its midpoint. A lower IC50 goes with greater potency in that assay. What is called logD is lipophilicity at a set pH, counting ionised and neutral species. A word on the solubility: it is the concentration that dissolves in the medium under given conditions. Low values mean little dissolved substance, high ones much dissolved substance. Usually clearance stands for the volume of plasma or blood freed of the substance per unit of time. Read a low clearance as inefficient removal. By bioavailability is commonly meant the share of a dose that reaches the circulation, judged against a reference dose that is usually intravenous.

One data set has as its system Liver microsome. Description: (§1) Intrinsic clearance in human liver microsomes. Type of data set: ADME. Conditions: microsomes. For orientation: Microsomes from liver hold many membrane-bound enzymes, among them those of drug oxidation.
A further data set deals with Mus musculus. Nature of the data set: In vivo inhibition of Kv1.5 channel in BaLBc mouse assessed as unbound steady-state plasma concentration required to increase QT-interval by 30% at 20 umol/kg,iv for 15 mins. The data set is classed as functional.
Data set [1] has as its target Voltage-gated inwardly rectifying potassium channel KCNH2 (Homo sapiens, UniProt Q12809). Description: Inhibition of human ERG.
Data set [2] is described as follows: Lipophilicity, log D of the compound by HPLC analysis. The data set is classed as physicochemical.
The target in data set [3] is T1, Potassium voltage-gated channel subfamily A member 5 (Homo sapiens, UniProt P22460). Description: Inhibition of human Kv1.5 channel by QPatch-clamp method. On the technique in general: The patch-clamp technique gives a direct electrical read-out from membranes.
T1 sequence (P22460 whole entry): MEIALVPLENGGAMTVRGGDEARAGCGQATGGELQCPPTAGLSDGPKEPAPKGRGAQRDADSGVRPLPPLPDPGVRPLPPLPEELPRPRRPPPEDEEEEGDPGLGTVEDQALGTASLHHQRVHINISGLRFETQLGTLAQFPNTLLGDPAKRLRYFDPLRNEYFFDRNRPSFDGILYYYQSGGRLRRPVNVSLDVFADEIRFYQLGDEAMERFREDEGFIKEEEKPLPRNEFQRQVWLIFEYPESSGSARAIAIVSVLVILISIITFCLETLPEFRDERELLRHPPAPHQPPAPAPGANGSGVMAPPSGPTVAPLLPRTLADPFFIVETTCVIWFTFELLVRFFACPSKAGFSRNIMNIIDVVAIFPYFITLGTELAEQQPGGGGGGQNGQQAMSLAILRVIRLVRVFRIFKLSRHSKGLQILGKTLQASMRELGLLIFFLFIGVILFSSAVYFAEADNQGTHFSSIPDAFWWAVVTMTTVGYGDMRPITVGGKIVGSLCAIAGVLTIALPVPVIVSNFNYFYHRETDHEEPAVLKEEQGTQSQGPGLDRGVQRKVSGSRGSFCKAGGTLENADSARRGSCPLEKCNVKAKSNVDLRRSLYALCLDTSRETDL
Data set [4] can be described thus: Solubility of the compound. Type of data set: physicochemical.
A further data set addresses Cytochrome P450 3A4 (Homo sapiens, UniProt P08684). Nature of the data set: Inhibition of CYP3A4 (unknown origin). The data set is classed as ADME.
Data set [5] is described as follows: Clearance in iv dosed dog. Type of data set: ADME, organism-based, Canis lupus familiaris. The following applies: in vivo.
Data set [6] in a line: Absolute bioavailability in rat. Type of data set: ADME, organism-based. Conditions: in vivo.
Data set [7] can be described thus: Absolute bioavailability in dog. Type of data set: ADME, organism-based, Canis lupus familiaris. The following applies: in vivo.
Data set [8] is described as follows: Clearance in iv dosed rat. The data set is classed as ADME, organism-based. The following applies: in vivo.
Data set [9] is described as follows: as §1. The data set is classed as ADME. The following applies: liver microsomes, read-out: CLH.
For data set [10], the target named is T1, Potassium voltage-gated channel subfamily A member 5. Nature of the data set: Inhibition of human Kv1.5 channel by Rb-flux assay.
The nature of data set [11]: Solubility of crystalline form of compound. The data set is classed as physicochemical.

Sequence of Voltage-gated inwardly rectifying potassium channel KCNH2 (Q12809 whole entry): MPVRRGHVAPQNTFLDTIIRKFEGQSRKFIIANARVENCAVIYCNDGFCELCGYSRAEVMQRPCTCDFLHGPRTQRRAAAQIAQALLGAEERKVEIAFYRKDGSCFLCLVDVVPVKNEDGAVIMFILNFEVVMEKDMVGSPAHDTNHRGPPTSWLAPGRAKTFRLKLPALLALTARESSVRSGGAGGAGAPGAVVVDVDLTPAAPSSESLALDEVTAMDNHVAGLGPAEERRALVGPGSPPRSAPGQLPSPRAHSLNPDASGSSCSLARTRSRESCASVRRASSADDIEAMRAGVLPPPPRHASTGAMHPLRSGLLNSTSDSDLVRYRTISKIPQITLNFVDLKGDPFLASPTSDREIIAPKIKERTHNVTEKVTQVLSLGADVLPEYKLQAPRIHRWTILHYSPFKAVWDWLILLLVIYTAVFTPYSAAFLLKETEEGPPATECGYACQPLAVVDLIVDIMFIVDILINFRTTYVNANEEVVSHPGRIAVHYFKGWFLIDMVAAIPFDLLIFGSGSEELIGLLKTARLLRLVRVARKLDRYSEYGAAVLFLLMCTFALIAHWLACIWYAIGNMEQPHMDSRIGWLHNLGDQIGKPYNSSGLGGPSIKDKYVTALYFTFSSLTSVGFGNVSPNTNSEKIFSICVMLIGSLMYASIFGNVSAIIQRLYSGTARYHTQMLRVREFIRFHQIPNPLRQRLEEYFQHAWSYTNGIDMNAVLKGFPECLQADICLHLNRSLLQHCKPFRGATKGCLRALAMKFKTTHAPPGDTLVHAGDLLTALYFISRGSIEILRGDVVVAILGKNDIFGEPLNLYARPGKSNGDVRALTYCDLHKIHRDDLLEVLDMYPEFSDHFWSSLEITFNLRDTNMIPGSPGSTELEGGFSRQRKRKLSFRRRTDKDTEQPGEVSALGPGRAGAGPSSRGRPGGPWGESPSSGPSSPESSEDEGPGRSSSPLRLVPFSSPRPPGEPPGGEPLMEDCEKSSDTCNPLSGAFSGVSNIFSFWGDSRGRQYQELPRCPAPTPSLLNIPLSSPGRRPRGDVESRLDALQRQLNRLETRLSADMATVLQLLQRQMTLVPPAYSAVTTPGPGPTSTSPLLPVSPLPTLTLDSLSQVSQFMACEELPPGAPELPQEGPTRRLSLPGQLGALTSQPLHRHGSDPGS
Sequence of Cytochrome P450 3A4 (P08684 whole entry): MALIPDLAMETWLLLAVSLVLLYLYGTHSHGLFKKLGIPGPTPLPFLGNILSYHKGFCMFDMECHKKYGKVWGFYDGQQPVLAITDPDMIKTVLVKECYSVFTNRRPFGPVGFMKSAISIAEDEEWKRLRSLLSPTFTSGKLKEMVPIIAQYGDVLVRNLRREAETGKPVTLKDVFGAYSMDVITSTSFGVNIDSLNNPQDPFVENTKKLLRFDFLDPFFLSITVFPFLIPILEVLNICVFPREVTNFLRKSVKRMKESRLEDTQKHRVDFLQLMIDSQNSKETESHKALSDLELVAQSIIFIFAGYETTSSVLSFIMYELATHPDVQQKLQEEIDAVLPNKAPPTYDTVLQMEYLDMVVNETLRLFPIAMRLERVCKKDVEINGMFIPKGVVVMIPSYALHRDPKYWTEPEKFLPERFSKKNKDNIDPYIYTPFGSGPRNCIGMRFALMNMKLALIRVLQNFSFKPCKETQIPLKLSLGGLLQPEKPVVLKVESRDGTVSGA

`CC(C)(C)NC(=O)C1c2ccccc2C(=O)N1Cc1ccccc1-c1ccc(F)c(F)c1` (stereo in doubt; 16E1): in the data set on Liver microsome, the CLH came to 38 µL/min/mg. Also, the Activity in the data set with Mus musculus is 0.066 µM. The figures for the IC50 in data set [1] and in data set [3] were over 33 µM and 1500 nM, respectively. The logD in data set [2] (read-out: logD) was determined as 5.
For the molecule `CC(C)(CN1C(=O)c2ccccc2C1C(=O)NCCCF)c1ccc(Cl)cc1` (single isomer, unassigned; enantiomer 1), in data set [4], the concentration in solution (solubility) came to 83 µM (≈ 33.4 µg/mL). In addition, the IC50 is over 50 µM at Cytochrome P450 3A4, over 33 µM in [1] and 700 nM in data set [3]. The results for the clearance in [5] and in data set [8] were 18 mL/min/kg and 4.7 mL/min/kg, respectively. Further, the values for the bioavailability in [6] and in [7] were 58% and 41%, respectively. Further, in data set [9], the microsomal CLint came out at 14 µL/min/mg. The Activity in the data set on Mus musculus worked out at 0.4 µM. Besides, the logD in data set [2] (read-out: logD) was determined as 4.2.
As for `CC(C)(C)NC(=O)C1c2ccc(NS(C)(=O)=O)cc2C(=O)N1Cc1ccccc1-c1ccccc1` (racemic), the IC50 is 17 µM in data set [10], 15 µM in data set [1] and 7600 nM in data set [3]. For the same molecule, the microsomal CLint in [9] is 59 µL/min/mg. Also, the logD in data set [2] (read-out: logD) is 4.
Take `CC(C)(C)NC(=O)C1c2ccccc2C(=O)N1Cc1ccc(F)cc1-c1ccccc1` (single isomer, unassigned; enantiomer 1): the microsomal CLint in data set [9] came to 58 µL/min/mg. The Activity in the data set on Mus musculus was found to be 0.054 µM. The figures for the IC50 in [1] and in data set [3] were over 33 µM and 800 nM, respectively. Also, in data set [2] (read-out: logD), the log distribution coefficient (logD) was found to be 5.2.
`CC(C)(C)NC(=O)C1c2ccccc2C(=O)N1Cc1cc(F)ccc1-c1ccc(F)cc1` (single isomer, unassigned; enantiomer 2): the CLH with Liver microsome is 41 µL/min/mg. The Activity in the data set with Mus musculus worked out at 0.28 µM. The IC50 was over 33 µM in data set [1] and 900 nM in [3].
With `CC(C)(CN1C(=O)c2ccccc2C1C(=O)NCC(F)F)c1ccc(F)cc1` (configuration not stated), the microsomal CLint in data set [9] was under 12 µL/min/mg. Further, the Activity with Mus musculus worked out at 1.6 µM. In data set [2] (read-out: logD), the logD was found to be 3.7. Also, the IC50 in [3] was 1200 nM.
`CC(C)(C)NC(=O)C1c2ccccc2C(=O)N1Cc1cc(F)ccc1-c1ccccc1` (single isomer, unassigned; enantiomer 2) showed a CLH in the data set on Liver microsome of 96 µL/min/mg. Besides, the IC50 in data set [1] is over 33 µM; in [3] it was 1600 nM.
With `Cc1c(O)ccc2c1C(=O)N(Cc1ccccc1-c1ccccc1)C2C(=O)NC(C)(C)C` (racemic), the IC50 in data set [10] is 3.2 µM; in data set [1], 46 µM; in data set [3] it was 2000 nM. In addition, the microsomal CLint in data set [9] was under 12 µL/min/mg. The logD in data set [2] (read-out: logD) turned out to be 4.4.
Consider `CCCNC(=O)C1c2ccccc2C(=O)N1CC(C)c1ccc(Cl)cc1` (single isomer, unassigned; isomer 1), for which the values for the IC50 (against Cytochrome P450 3A4; in data set [3]) were over 50 µM and 400 nM, respectively. In addition, the clearance stood at 6 mL/min/kg in [5] and 7.8 mL/min/kg in data set [8]. In addition, the bioavailability in data set [6] was 81%; in [7], 63%. Further, the microsomal CLint in [9] was 99 µL/min/mg. Further, the Activity in the data set with Mus musculus was 0.5 µM. In data set [11], this molecule returned a solubility of 21 µM (≈ 7.79 µg/mL). The logD in [2] (read-out: logD) turned out to be 4.2.
Consider `Cc1c(NS(C)(=O)=O)ccc2c1C(=O)N(Cc1ccccc1-c1ccccc1)C2C(=O)NC(C)(C)C` (racemic), for which the IC50 was 31 µM in [10], over 33 µM in data set [1] and 4500 nM in data set [3]. In addition, the microsomal CLint in data set [9] amounted to 88 µL/min/mg. Also, in data set [2] (read-out: logD), the logD was 4.3.
On to `COc1ccc2c(c1)C(=O)N(Cc1ccccc1-c1ccccc1)C2C(=O)NC(C)(C)C` (racemic), for which the IC50 amounted to 11.3 µM in [10] and 30 µM in [1]. The microsomal CLint in data set [9] is over 100 µL/min/mg. Also, the logD in data set [2] (read-out: logD) worked out at 4.9.
In the data set on Liver microsome, `CCCNC(=O)C1c2ccccc2C(=O)N1CC(C)c1ccc(Cl)cc1` (single isomer, unassigned; isomer 2) yielded a CLH of 183 µL/min/mg. Also, the Activity in the data set on Mus musculus was 0.4 µM. This molecule also returned a logD in [2] of 3.9. Further, the IC50 in data set [3] came to 700 nM.
`CC(C)(CN1C(=O)c2ccccc2C1C(=O)NCCCF)c1ccc(Cl)cc1` (stereo in doubt; 23) returned a CLH in the data set with Liver microsome of under 12 µL/min/mg. The Activity in the data set on Mus musculus stood at 1.3 µM. Also, the pH-dependent lipophilicity (logD) in data set [2] amounted to 4. The molecule further gave an IC50 in [3] of 500 nM.
For `Cc1c(OC(F)F)ccc2c1C(=O)N(Cc1ccccc1-c1ccccc1)C2C(=O)NC(C)(C)C` (racemic), the half-maximal inhibitory concentration (IC50) in [10] came out at 1.2 µM; in data set [1], 22 µM. For the same molecule, the microsomal CLint in data set [9] was over 100 µL/min/mg. For the same molecule, the logD in data set [2] (read-out: logD) came to 5.9.
For `CCCCNC(=O)C1c2ccccc2C(=O)N1CC(C)c1ccc(Cl)cc1` (racemic), the values for the IC50 in data set [10], in [1] and in [3] were 0.7 µM, 32 µM and 1100 nM, respectively. Moreover, in data set [9], the microsomal CLint was over 100 µL/min/mg. Moreover, the pH-dependent lipophilicity (logD) in data set [2] (read-out: logD) stood at 4.5.
The molecule `CC(C)(CN1C(=O)c2ccccc2C1C(=O)NCCCF)c1ccc(Cl)cc1` (single isomer, unassigned; enantiomer 2) had a CLH in the data set with Liver microsome of 19 µL/min/mg. Besides, the IC50 in data set [3] worked out at 1000 nM.
On to `Cc1c(O)ccc2c1C(=O)N(Cc1ccccc1-c1ccccc1)C2C(=O)NC(C)(C)C` (single isomer, unassigned; enantiomer 2), for which the concentration for half-maximal inhibition (IC50) in [10] stood at 17 µM; in data set [1] it was 26 µM; in data set [3] it was 3400 nM. In the data set on Liver microsome, this molecule showed a CLH of 24 µL/min/mg.
In the data set with Liver microsome, `CC(C)(C)NC(=O)C1c2ccccc2C(=O)N1Cc1ccc(F)cc1-c1ccccc1` (single isomer, unassigned) showed a CLH of 62 µL/min/mg. Also, the results for the IC50 in data set [1] and in data set [3] were over 32 µM and 1700 nM, respectively.
On to `CC(C)(C)NC(=O)C1c2ccc(O)cc2C(=O)N1Cc1ccccc1-c1ccccc1` (racemic), for which the IC50 in [10] is 8.4 µM; in [1], 45 µM; in [3] it was 6900 nM. For the same molecule, in data set [9], the microsomal CLint was over 100 µL/min/mg. The logD in data set [2] (read-out: logD) turned out to be 4.
Take `CC(C)(C)NC(=O)C1c2ccccc2C(=O)N1Cc1cc(F)ccc1-c1ccccc1` (single isomer, unassigned; enantiomer 1): the microsomal CLint in data set [9] came to 102 µL/min/mg. In the data set on Mus musculus, the Activity came out at 0.079 µM. In addition, the IC50 is over 33 µM in [1] and 1400 nM in data set [3]. Moreover, in data set [2] (read-out: logD), the logD was found to be 5.2.
For `CC(C)(C)NC(=O)C1c2ccccc2C(=O)N1Cc1cc(F)ccc1-c1ccc(F)cc1` (single isomer, unassigned; enantiomer 1) the same measures were 49 µL/min/mg, 0.055 µM, over 33 µM, 2000 nM and 5.3.
For the molecule `Cc1c(OS(C)(=O)=O)ccc2c1C(=O)N(Cc1ccccc1-c1ccccc1)C2C(=O)NC(C)(C)C` (racemic), the IC50 is 10.5 µM in data set [10] and over 32 µM in data set [1]. Besides, the microsomal CLint in data set [9] is over 100 µL/min/mg. Further, the pH-dependent lipophilicity (logD) in data set [2] (read-out: logD) was 5.1.
In the case of `CC(C)(C)NC(=O)C1c2ccccc2C(=O)N1Cc1ccccc1-c1ccc(F)c(F)c1` (single isomer, unassigned; enantiomer 2), the CLH with Liver microsome was 103 µL/min/mg. Besides, the IC50 in [1] is over 31 µM; in [3], 1100 nM.
In the case of `Cc1c(O)ccc2c1C(=O)N(Cc1ccccc1-c1ccccc1)C2C(=O)NC(C)(C)C` (single isomer, unassigned), the IC50 in data set [10] was 1.1 µM; in data set [1] it was over 32 µM; in data set [3], 1300 nM. In addition, in the data set with Liver microsome, the CLH is 20 µL/min/mg.
`CC(C)(C)NC(=O)C1c2ccccc2C(=O)N1Cc1ccc(F)cc1-c1ccc(F)cc1` (configuration not stated): the microsomal CLint in data set [9] was found to be 34 µL/min/mg. The Activity in the data set on Mus musculus is 0.9 µM. Besides, the IC50 is over 33 µM in data set [1] and 1400 nM in data set [3]. Also, in [2] (read-out: logD), the logD amounted to 5.
As for `COCCOCCNC(=O)C1c2cc(F)ccc2C(=O)N1CC(C)c1ccc(Cl)cc1` (racemic), the IC50 was over 32 µM in data set [10] and over 33 µM in data set [1]. For the same molecule, in data set [9], the microsomal CLint was over 100 µL/min/mg. The logD in data set [2] (read-out: logD) is 3.6.
